In the supplement of paper PMC10307832:

Tests used:
Assay in all cases: relative viability (nuclei count vs DMSO), 5 days (fraction); higher = more cells survive
[1] = test system: NCI-H3122
In short: (§1)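 Lung cancer cell lines in 1536-well plates got either a single drug or a fixed anchor-drug dose together with five library-drug doses (not always all listed) in √10 steps, by pin tool, on the day after seeding. Nuclei were counted after 5 days, and relative viability is the treated-to-vehicle ratio of nuclei counts. Values are medians of duplicate plates.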

[2] = test system: HCC-44
In short: as §1

[3] = test system: NCI-H2347
In short: as §1

[4] = test system: PC-14
In short: as §1

[5] = test system: NCI-H2085
In short: as §1

[6] = test system: NCI-H1734
In short: as §1

[7] = test system: NCI-H1993
In short: as §1

[8] = test system: 201T
In short: as §1

[9] = test system: EKVX
In short: as §1

[10] = test system: NCI-H2170
In short: as §1

[11] = test system: NCI-H2405
In short: as §1

[12] = test system: NCI-H1793
In short: as §1

[13] = test system: RERF-LC-KJ
In short: as §1

[14] = test system: LOU-NH91
In short: as §1

[15] = test system: EPLC-272H
In short: as §1

[16] = test system: NCI-H441
In short: as §1

[17] = test system: NCI-H647
In short: as §1

[18] = test system: SW 900
In short: as §1

[19] = test system: ABC-1
In short: as §1

## Clc1ccc(Nc2nnc(Cc3ccncc3)c3ccccc23)cc1 [Vatalanib] + NC(=O)Nc1cc(-c2cccc(F)c2)sc1C(=O)N[C@H]1CCCNC1 [AZD7762] (partner 0.2 µM)
[1]; first compound 0.04 µM
  relative viability: 1.07
[1]; first compound 0.1265 µM
  relative viability: 0.969
[1]; first compound 0.4 µM
  relative viability: 1.02
[1]; first compound 1.265 µM
  relative viability: 0.966
[1]; first compound 4 µM
  relative viability: 0.995
[2]; first compound 0.04 µM
  relative viability: 1.01
[2]; first compound 0.1265 µM
  relative viability: 1.03
[2]; first compound 0.4 µM
  relative viability: 0.959
[2]; first compound 1.265 µM
  relative viability: 0.983
[2]; first compound 4 µM
  relative viability: 1
[3]; first compound 0.04 µM
  relative viability: 0.776
[3]; first compound 0.1265 µM
  relative viability: 0.932
[3]; first compound 0.4 µM
  relative viability: 0.901
[3]; first compound 1.265 µM
  relative viability: 0.521
[3]; first compound 4 µM
  relative viability: 0.769
[4]; first compound 0.04 µM
  relative viability: 0.31
[4]; first compound 0.1265 µM
  relative viability: 0.332
[4]; first compound 1.265 µM
  relative viability: 0.26
[4]; first compound 4 µM
  relative viability: 0.318
[5]; first compound 0.04 µM
  relative viability: 1.12
[5]; first compound 0.1265 µM
  relative viability: 1
[5]; first compound 0.4 µM
  relative viability: 0.998
[5]; first compound 1.265 µM
  relative viability: 0.862
[5]; first compound 4 µM
  relative viability: 0.928
[6]; first compound 0.04 µM
  relative viability: 0.534
[6]; first compound 0.1265 µM
  relative viability: 0.484
[6]; first compound 0.4 µM
  relative viability: 0.537
[6]; first compound 1.265 µM
  relative viability: 0.536
[6]; first compound 4 µM
  relative viability: 0.528
[7]; first compound 0.04 µM
  relative viability: 0.4
[7]; first compound 0.1265 µM
  relative viability: 0.934
[7]; first compound 0.4 µM
  relative viability: 0.728
[7]; first compound 1.265 µM
  relative viability: 0.713
[7]; first compound 4 µM
  relative viability: 0.737
[8]; first compound 0.04 µM
  relative viability: 0.611
[8]; first compound 0.1265 µM
  relative viability: 0.57
[8]; first compound 0.4 µM
  relative viability: 0.621
[8]; first compound 1.265 µM
  relative viability: 0.648
[8]; first compound 4 µM
  relative viability: 0.57
[9]; first compound 0.04 µM
  relative viability: 0.646
[9]; first compound 0.1265 µM
  relative viability: 0.623
[9]; first compound 0.4 µM
  relative viability: 0.679
[9]; first compound 1.265 µM
  relative viability: 0.679
[9]; first compound 4 µM
  relative viability: 0.64
[10]; first compound 0.04 µM
  relative viability: 0.988
[10]; first compound 0.1265 µM
  relative viability: 0.77
[10]; first compound 0.4 µM
  relative viability: 0.892
[10]; first compound 1.265 µM
  relative viability: 0.837
[10]; first compound 4 µM
  relative viability: 0.785
[11]; first compound 0.04 µM
  relative viability: 0.799
[11]; first compound 0.1265 µM
  relative viability: 0.694
[11]; first compound 0.4 µM
  relative viability: 0.725
[11]; first compound 4 µM
  relative viability: 0.696
[12]; first compound 0.04 µM
  relative viability: 0.518
[12]; first compound 0.1265 µM
  relative viability: 0.311
[12]; first compound 0.4 µM
  relative viability: 0.714
[12]; first compound 1.265 µM
  relative viability: 0.243
[12]; first compound 4 µM
  relative viability: 0.286
[13]; first compound 0.04 µM
  relative viability: 1.16
[13]; first compound 0.1265 µM
  relative viability: 0.919
[13]; first compound 0.4 µM
  relative viability: 1.05
[13]; first compound 1.265 µM
  relative viability: 0.711
[13]; first compound 4 µM
  relative viability: 0.749
[14]; first compound 0.04 µM
  relative viability: 0.786
[14]; first compound 0.1265 µM
  relative viability: 0.691
[14]; first compound 0.4 µM
  relative viability: 0.756
[14]; first compound 1.265 µM
  relative viability: 0.708
[14]; first compound 4 µM
  relative viability: 0.686
[15]; first compound 0.04 µM
  relative viability: 0.0728
[15]; first compound 0.1265 µM
  relative viability: 0.167
[15]; first compound 0.4 µM
  relative viability: 0.212
[15]; first compound 1.265 µM
  relative viability: 0.216
[15]; first compound 4 µM
  relative viability: 0.207
[16]; first compound 0.04 µM
  relative viability: 1.05
[16]; first compound 0.1265 µM
  relative viability: 1.18
[16]; first compound 0.4 µM
  relative viability: 1.19
[16]; first compound 1.265 µM
  relative viability: 1.02
[16]; first compound 4 µM
  relative viability: 0.892
[17]; first compound 0.04 µM
  relative viability: 0.489
[17]; first compound 0.1265 µM
  relative viability: 0.45
[17]; first compound 0.4 µM
  relative viability: 0.395
[17]; first compound 1.265 µM
  relative viability: 0.391
[17]; first compound 4 µM
  relative viability: 0.46
[18]; first compound 0.04 µM
  relative viability: 0.596
[18]; first compound 0.1265 µM
  relative viability: 0.653
[18]; first compound 0.4 µM
  relative viability: 0.567
[18]; first compound 1.265 µM
  relative viability: 0.69
[18]; first compound 4 µM
  relative viability: 0.6
[19]; first compound 0.04 µM
  relative viability: 0.7
[19]; first compound 0.4 µM
  relative viability: 0.744
[19]; first compound 1.265 µM
  relative viability: 0.853
[19]; first compound 4 µM
  relative viability: 0.719
